Source: PubChem BioAssay (NCI)
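GI50 marks 50% less growth. Definition used: TGI = concentration required for complete inhibition of growth.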

How the values were obtained:
Experiment in all cases: NCI tumour cell line growth inhibition, 384-well format
[1] = test system: OVCAR-5 ovarian
[2] = test system: COLO 205 colon
[3] = test system: SF-539 CNS
[4] = test system: SR leukemia
[5] = test system: K-562 leukemia
[6] = test system: HOP-92 NSCLC
[7] = test system: RXF 393 renal
[8] = test system: SK-MEL-2 melanoma
[9] = test system: NCI/ADR-RES ovarian
[10] = test system: 786-0 renal
[11] = test system: CCRF-CEM leukemia
[12] = test system: ACHN renal
[13] = test system: NCI-H322M lung
[14] = test system: OVCAR-4 ovarian
[15] = test system: MCF7 breast
[16] = test system: M14 melanoma
[17] = test system: SK-MEL-28 melanoma
[18] = test system: U251 glioblastoma
[19] = test system: NCI-H460 NSCLC
[20] = test system: NCI-H226 lung
[21] = test system: SK-MEL-5 melanoma
[22] = test system: HL-60(TB) leukemia
[23] = test system: SF-268 CNS
[24] = test system: HT29 colon
[25] = test system: MOLT-4 leukemia
[26] = test system: SW-620 colon
[27] = test system: TK-10 renal
[28] = test system: HOP-62 NSCLC
[29] = test system: HS 578T breast
[30] = test system: PC-3 prostate
[31] = test system: A498 renal
[32] = test system: HCT-116 colon
[33] = test system: BT-549 breast
[34] = test system: HCT-15 colon
[35] = test system: IGROV1 ovarian
[36] = test system: CAKI-1 renal
[37] = test system: SN12C renal
[38] = test system: KM12 colon
[39] = test system: LOX IMVI melanoma
[40] = test system: T-47D breast
[41] = test system: SK-OV-3 ovarian
[42] = test system: DU-145 prostate
[43] = test system: SNB-75 CNS
[44] = test system: NCI-H522 lung
[45] = test system: MDA-MB-468 breast
[46] = test system: UACC-62 melanoma
[47] = test system: RPMI-8226 leukemia
[48] = test system: MALME-3M melanoma
[49] = test system: MDA-MB-231 breast
[50] = test system: SF-295 CNS
[51] = test system: SNB-19 CNS
[52] = test system: MDA-MB-435 melanoma
[53] = test system: A549 NSCLC
[54] = test system: UACC-257 melanoma
[55] = test system: OVCAR-3 ovarian
[56] = test system: NCI-H23 lung
[57] = test system: UO-31 renal
[58] = test system: EKVX NSCLC
[59] = test system: HCC-2998 colon

## O=[N+]([O-])c1ccc(Nc2ccccc2-c2ccccc2)c2nonc12
[1]
  GI50: 15.8 µM
  TGI: 36.9 µM
[2]
  GI50: 17.5 µM
  TGI: 42.3 µM
[3]
  GI50: 17.4 µM
  TGI: 33.2 µM
[4]
  GI50: 19 µM
  TGI: 33.3 µM
[5]
  GI50: 11.5 µM
  TGI: 28.6 µM
[6]
  GI50: 10.5 µM
  TGI: 24.8 µM
[7]
  GI50: 17.4 µM
  TGI: 32.2 µM
[8]
  GI50: 23 µM
  TGI: 37.9 µM
[9]
  GI50: 12.7 µM
  TGI: 27.9 µM
[10]
  GI50: 12.6 µM
  TGI: 25.6 µM
[11]
  GI50: 11.3 µM
  TGI: 23.6 µM
[12]
  GI50: 15.6 µM
  TGI: 34.2 µM
[13]
  GI50: 17.5 µM
  TGI: 37.3 µM
[14]
  GI50: 7.68 µM
  TGI: 28.4 µM
[15]
  GI50: 13.8 µM
  TGI: 31.3 µM
[16]
  GI50: 13.9 µM
  TGI: 30.9 µM
[17]
  GI50: 13.2 µM
  TGI: 29.7 µM
[18]
  GI50: 11.2 µM
  TGI: 25.7 µM
[19]
  GI50: 11 µM
  TGI: 24.1 µM
[20]
  GI50: 11.2 µM
  TGI: 23.6 µM
[21]
  GI50: 12.9 µM
  TGI: 25.7 µM
[22]
  GI50: 13.3 µM
  TGI: 26.5 µM
[23]
  GI50: 15.6 µM
  TGI: 34.1 µM
[24]
  GI50: 15.9 µM
  TGI: 33.8 µM
[25]
  GI50: 12.8 µM
  TGI: 25.6 µM
[26]
  GI50: 16.4 µM
  TGI: 35.7 µM
[27]
  GI50: 14 µM
  TGI: 34.8 µM
[28]
  GI50: 13.7 µM
  TGI: 28.4 µM
[29]
  GI50: 10.4 µM
  TGI: 23.8 µM
[30]
  GI50: 12.8 µM
  TGI: 27 µM
[31]
  GI50: 14.9 µM
  TGI: 32.3 µM
[32]
  GI50: 13.9 µM
  TGI: 28.2 µM
[33]
  GI50: 17.1 µM
  TGI: 32.2 µM
[34]
  GI50: 14.3 µM
  TGI: 29.2 µM
[35]
  GI50: 16.1 µM
  TGI: 36.2 µM
[36]
  GI50: 14.5 µM
  TGI: 33.3 µM
[37]
  GI50: 11.9 µM
  TGI: 28.6 µM
[38]
  GI50: 16.4 µM
  TGI: 33 µM
[39]
  GI50: 15.9 µM
  TGI: 29.7 µM
[40]
  GI50: 7.99 µM
  TGI: 30.9 µM
[41]
  GI50: 19.9 µM
  TGI: 40.4 µM
[42]
  GI50: 16.3 µM
  TGI: 51.2 µM
[43]
  GI50: 14.1 µM
  TGI: 34 µM
[44]
  GI50: 9.27 µM
  TGI: 22.9 µM
[45]
  GI50: 3.96 µM
  TGI: 15.4 µM
[46]
  GI50: 13.6 µM
  TGI: 28.3 µM
[47]
  GI50: 7.48 µM
  TGI: 20 µM
[48]
  GI50: 16.8 µM
  TGI: 36.3 µM
[49]
  GI50: 16.2 µM
  TGI: 35.1 µM
[50]
  GI50: 10.1 µM
  TGI: 22.9 µM
[51]
  GI50: 12.9 µM
  TGI: 35.1 µM
[52]
  GI50: 10.7 µM
  TGI: 30.1 µM
[53]
  GI50: 14.1 µM
  TGI: 30.9 µM
[54]
  GI50: 16.5 µM
  TGI: 36.1 µM
[55]
  GI50: 11.9 µM
  TGI: 25.1 µM
[56]
  GI50: 5.93 µM
  TGI: 20.5 µM
[57]
  GI50: 13 µM
  TGI: 27.5 µM
[58]
  GI50: 13.2 µM
  TGI: 30 µM
[59]
  GI50: 22.3 µM
  TGI: 40.8 µM
